From article PMC8580050, “Improvement of the antimicrobial potency, pharmacokinetic and pharmacodynamic properties of albicidin by incorporation of nitrogen atoms” (Chemical Science, 2021)
Converted amounts (≈) assume the structure as drawn. Like-named read-outs stand apart in the source and are kept apart here.

How the values were obtained:
DNA gyrase = details: read-out: half maximum inhibitory concentration (IC50); cited from earlier work
[1] = tested on: E. faecium (ciprofloxacin susceptible clinical isolate); experiment: microbe, parasite or virus in culture; details: Enterococcus faecium
[2] = tested on: E. coli (ciprofloxacin susceptible clinical isolate); experiment: MIC, extended panel; assay type: cell-based; details: Escherichia coli
Procedure: (§1) 1.1.1 In vitro experiments
(§2) Determination of Minimal inhibitory concentrations (MIC)
(§3) Approved Standard M07-A9.1
(§4) CFU mL-1. […] Albicidin and […]
(§5) and serially diluted in DMSO (100%). […]
(§6) in 0.1 N HCL, respectively.
(§7) One row of each well plate served as a […]
(§8) sterility control (only MHB II-media). […]
(§9) adding 5 µL DMSO to several wells. […]
(§10) for growth inhibition by naked eye.
(§11) Microorganisms and Cell Cultures (DSMZ): […]
(§12) Dr. Werner (Robert-Koch-Institut, Wernigerode, Germany): […]

[3] = tested on: Salmonella Kentucky (ciprofloxacin susceptible clinical isolate); experiment: MIC, extended panel; assay type: cell-based; details: Salmonella enterica
Procedure: as §1, §2, §3, §4, §5, §6, §7, §8, §9, §10, §11, §12

physchem = details: 20 °C, kinetic from dmso stock
[4] = tested on: A. baumannii (ciprofloxacin resistant isolate); experiment: microbe, parasite or virus in culture; assay type: cell-based, Acinetobacter baumannii; details: Acinetobacter baumannii
Procedure: as §1, §2, §3, §4, §5, §6, §7, §8, §9, §10, §11, §12
(§13) for the following 11 pathogenic isolates: […]

[5] = tested on: Salmonella Kentucky (ciprofloxacin resistant clinical isolate); experiment: microbe, parasite or virus in culture; assay type: cell-based; details: Salmonella enterica
Procedure: as §1, §2, §3, §4, §5, §6, §7, §8, §9, §10, §11, §12

[6] = tested on: K. pneumoniae (ciprofloxacin resistant clinical isolate); experiment: microbe, parasite or virus in culture; assay type: cell-based; details: Klebsiella pneumoniae
Procedure: as §1, §2, §3, §4, §5, §6, §7, §8, §9, §10, §11, §12

[7] = tested on: P. aeruginosa (ciprofloxacin susceptible clinical isolate); experiment: MIC, extended panel; assay type: cell-based, Pseudomonas aeruginosa; details: Pseudomonas aeruginosa
Procedure: as §1, §2, §3, §4, §5, §6, §7, §8, §9, §10, §11, §12, §13

[8] = tested on: E. coli (ciprofloxacin resistant clinical isolate); experiment: microbe, parasite or virus in culture; assay type: cell-based, Escherichia coli; details: Escherichia coli
Procedure: as §1, §2, §3, §4, §5, §6, §7, §8, §9, §10, §11, §12

[9] = tested on: S. aureus (ciprofloxacin resistant clinical isolate); experiment: microbe, parasite or virus in culture; assay type: cell-based, Staphylococcus aureus; details: Staphylococcus aureus
Procedure: as §1, §2, §3, §4, §5, §6, §7, §8, §9, §10, §11, §12, §13

in vitro = details: plasma, pH 7.4
Procedure: Determination of plasma stability
Human and murine plasma aliquots (Sigma-Aldrich, Taufkirchen, Germany) were thawed and subsequently centrifuged at 3000 rpm for 10 min at 4°C. Resulting supernatant was diluted in the same volume of phosphate buffer (pH 7.4) to obtain a plasma concentration of 50% (v/v). Stock solutions of […]
concentration of 20 µM (5% DMSO). Following incubation at 37°C ice-cold methanol containing 30% […]
were centrifuged at 4000 rpm for 20 min at 4°C and 100 µL of supernatant were directly transferred to a fresh MS-vial. Samples were analyzed by LC/MS-MS experiments. Quantification of remaining compounds was performed by an external calibration curve of standard solutions in the range of […]

[10] = tested on: S. aureus (ciprofloxacin susceptible clinical isolate); experiment: MIC, extended panel; assay type: cell-based; details: Staphylococcus aureus
Procedure: as §1, §2, §3, §4, §5, §6, §7, §8, §9, §10, §11, §12, §13

[11] = tested on: P. aeruginosa (ciprofloxacin resistant clinical isolate); experiment: microbe, parasite or virus in culture; assay type: cell-based; details: Pseudomonas aeruginosa
Procedure: as §1, §2, §3, §4, §5, §6, §7, §8, §9, §10, §11, §12, §13

[12] = tested on: E. faecium (ciprofloxacin resistant clinical isolate); experiment: microbe, parasite or virus in culture; assay type: cell-based; details: Enterococcus faecium
Procedure: as §1, §2, §3, §4, §5, §6, §7, §8, §9, §10, §11, §12, §13

[13] = tested on: K. pneumoniae (ciprofloxacin susceptible clinical isolate); experiment: MIC, extended panel; assay type: cell-based, Klebsiella pneumoniae; details: Klebsiella pneumoniae
Procedure: as §1, §2, §3, §4, §5, §6, §7, §8, §9, §10, §11, §12

[14] = tested on: E. coli DSM 1116 + 50% Human Serum; experiment: MIC determination in presence of 50% human serum; assay type: cell-based; details: Escherichia coli, DSM1116; E. coli DSM 1116 + 50% Human Serum; read-out: MIC
Excerpt: This investigation was completed by assessment of the antibacterial activity in presence of human plasma (50%) (Table 1), since high plasma protein binding can severely impair antibacterial activity and thus efficacy.
as §1, §2, §3, §4, §5, §6, §7, §8, §9, §10, §11

E. coli BW25113 = experiment: MIC determination (broth microdilution); assay type: cell-based; details: Escherichia coli
Procedure: as §1, §2, §3, §4, §5, §6, §7, §8, §9, §10, §11

B. subtilis DSM 10 = experiment: MIC determination (broth microdilution); assay type: cell-based; details: Bacillus subtilis, DSM10; B. subtilis DSM 10; read-out: MIC
Procedure: as §1, §2, §3, §4, §5, §6, §7, §8, §9, §10, §11

E. coli DNA gyrase = target: T1, E. coli DNA gyrase (Escherichia coli, UniProt P0AES4+P0AES6); experiment: E. coli gyrase supercoiling inhibition assay; assay type: biochemical; design: key: ↑: for stronger inhibition; ≈: for equal inhibition; ↓: for diminished inhibition compared to albicidin 1; details: constant concentration of 45 nM, compared to albicidin 1
T1 construct: purchased inspiralis Limited, Norwich, UK
T1 sequence (P0AES4 whole entry, one chain of several): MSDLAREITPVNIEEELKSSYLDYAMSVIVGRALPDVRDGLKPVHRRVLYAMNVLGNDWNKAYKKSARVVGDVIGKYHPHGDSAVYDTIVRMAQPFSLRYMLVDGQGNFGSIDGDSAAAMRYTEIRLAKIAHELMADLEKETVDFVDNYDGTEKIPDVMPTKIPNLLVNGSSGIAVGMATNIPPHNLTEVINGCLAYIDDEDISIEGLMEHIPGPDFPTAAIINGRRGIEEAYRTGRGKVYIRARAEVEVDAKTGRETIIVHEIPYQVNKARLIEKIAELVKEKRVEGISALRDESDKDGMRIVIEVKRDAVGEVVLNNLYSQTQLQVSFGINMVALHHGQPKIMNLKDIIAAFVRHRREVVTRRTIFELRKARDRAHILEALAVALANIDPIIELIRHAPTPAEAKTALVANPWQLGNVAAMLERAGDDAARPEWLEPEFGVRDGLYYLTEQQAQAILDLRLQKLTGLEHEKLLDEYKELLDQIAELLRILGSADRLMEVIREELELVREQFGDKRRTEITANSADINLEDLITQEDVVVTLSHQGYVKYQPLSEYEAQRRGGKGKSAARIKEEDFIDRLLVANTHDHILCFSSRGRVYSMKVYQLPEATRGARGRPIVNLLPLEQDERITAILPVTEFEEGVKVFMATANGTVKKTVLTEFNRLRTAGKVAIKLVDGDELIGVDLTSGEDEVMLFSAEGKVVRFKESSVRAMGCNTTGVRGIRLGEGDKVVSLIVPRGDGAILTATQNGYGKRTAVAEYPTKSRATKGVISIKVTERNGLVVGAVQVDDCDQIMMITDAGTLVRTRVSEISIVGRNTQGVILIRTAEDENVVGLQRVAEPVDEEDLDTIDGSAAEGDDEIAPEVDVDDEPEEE
Procedure: Escherichia coli Gyrase Supercoiling Inhibition Assay
loaded on an agarose gel.
2-15. […] Addition of DNA
All derivatives were tested at a concentration of […]

E. coli DSM 1116 = experiment: MIC determination (broth microdilution); assay type: cell-based, Escherichia coli; details: Escherichia coli, DSM1116
Procedure: as §1, §2, §3, §4, §5, §6, §7, §8, §9, §10, §11

S. Typhimurium TA100 = experiment: MIC determination (broth microdilution); assay type: cell-based, Salmonella typhimurium; details: Salmonella enterica; S. Typhimurium TA100; read-out: MIC
Procedure: as §1, §2, §3, §4, §5, §6, §7, §8, §9, §10, §11

M. luteus DSM1790 = experiment: MIC determination (broth microdilution); assay type: cell-based, Micrococcus luteus; details: M. luteus DSM1790
Procedure: as §1, §2, §3, §4, §5, §6, §7, §8, §9, §10, §11

M. phlei DSM 750 = experiment: MIC determination (broth microdilution); assay type: cell-based, Mycobacterium phlei; details: Mycolicibacterium phlei, DSM750; M. phlei DSM 750; read-out: MIC
Procedure: as §1, §2, §3, §4, §5, §6, §7, §8, §9, §10

[15] = E. coli DSM 1116, read-out: MIC
[16] = Micrococcus luteus, read-out: MIC

Row | SMILES | MIC [14] | MIC (E. coli BW25113) | MIC (B. subtilis DSM 10) | E. coli gyrase inhibition (E. coli DNA gyrase) | MIC (E. coli DSM 1116; [15]) | MIC (S. Typhimurium TA100) | MIC (M. luteus DSM1790; [16]) | MIC (M. phlei DSM 750) | other results
1 | COc1c(NC(=O)c2ccc(NC(=O)c3ccc(NC(=O)[C@H](CC#N)NC(=O)c4ccc(NC(=O)/C(C)=C/c5ccc(O)cc5)cc4)cc3)c(OC)c2O)ccc(C(=O)O)c1O [Compound 1, albicidin] | – | – | – | – | – | – | – | – | IC50 (DNA gyrase): 40 nM; MIC [1]: 0.25 µg/mL (≈ 0.297 µM); MIC [2]: 0.031 µg/mL (≈ 0.0368 µM); MIC [3]: 0.063 µg/mL (≈ 0.0747 µM); solubility at 20 h (physchem; pH 7.4, aqueous with cosolvent or surfactant or cyclodextrin): 5.53 µg/mL (≈ 6.56 µM); solubility kinetic at 20 h (physchem; pH 7.5, aqueous with cosolvent or surfactant or cyclodextrin): 5.53 µg/mL (≈ 6.56 µM); MIC [4]: 2 µg/mL (≈ 2.37 µM); MIC [5]: 0.25 µg/mL (≈ 0.297 µM); MIC [6]: ≥ 128 µg/mL; MIC [7]: 1 µg/mL (≈ 1.19 µM); MIC [8]: 0.125 µg/mL (≈ 0.148 µM); MIC [9]: 4 µg/mL (≈ 4.75 µM); half-life at 20 µM (in vitro; human): 60 min; half-life at 20 µM (in vitro; mouse): 30 min; MIC [10]: 2 µg/mL (≈ 2.37 µM); MIC [11]: 2 µg/mL (≈ 2.37 µM); MIC [12]: 16 µg/mL (≈ 19 µM); MIC [13]: ≥ 128 µg/mL
2 | COc1c(NC(=O)c2ccc(NC(=O)c3ccc(NC(=O)[C@H](Cc4c[nH]nn4)NC(=O)c4ccc(NC(=O)/C(C)=C/c5ccccn5)cc4)cc3)c(OC)c2O)ccc(C(=O)O)c1O [Compound 3] | 8 µg/mL | 0.5 µg/mL (≈ 0.575 µM) | 4 µg/mL (≈ 4.6 µM) | ↓ | 0.25 µg/mL (≈ 0.287 µM) | 0.125 µg/mL (≈ 0.144 µM) | 32 µg/mL (≈ 36.8 µM) | 64 µg/mL (≈ 73.6 µM) | –
3 | COc1c(NC(=O)c2ccc(NC(=O)c3ccc(NC(=O)[C@H](Cc4c[nH]nn4)NC(=O)c4ccc(NC(=O)/C(C)=C/c5cccnc5)cc4)cc3)c(OC)c2O)ccc(C(=O)O)c1O [Compound 4] | 8 µg/mL | 0.5 µg/mL (≈ 0.575 µM) | 2 µg/mL (≈ 2.3 µM) | ↓ | – | 0.125 µg/mL (≈ 0.144 µM) | 32 µg/mL (≈ 36.8 µM) | 32 µg/mL (≈ 36.8 µM) | MIC (E. coli DSM 1116): 0.125 µg/mL (≈ 0.144 µM)
4 | COc1c(NC(=O)c2ccc(NC(=O)c3ccc(NC(=O)[C@H](Cc4c[nH]nn4)NC(=O)c4ccc(NC(=O)/C(C)=C/c5ccc(O)cc5)cn4)cc3)c(OC)c2O)ccc(C(=O)O)c1O [Compound 5] | 2 µg/mL | 0.031 µg/mL (≈ 0.035 µM) | 0.25 µg/mL (≈ 0.282 µM) | ↑ | 0.031 µg/mL (≈ 0.035 µM) | 0.031 µg/mL (≈ 0.035 µM) | 0.5 µg/mL (≈ 0.564 µM) | 4 µg/mL (≈ 4.52 µM) | –
5 | COc1c(NC(=O)c2ccc(NC(=O)c3ccc(NC(=O)[C@H](Cc4c[nH]nn4)NC(=O)c4ccc(NC(=O)/C(C)=C/c5ccc(O)cc5)nc4)cc3)c(OC)c2O)ccc(C(=O)O)c1O [Compound 6] | 1 µg/mL | 0.063 µg/mL (≈ 0.0711 µM) | 0.5 µg/mL (≈ 0.564 µM) | ↓ | 0.016 µg/mL (≈ 0.0181 µM) | 0.016 µg/mL (≈ 0.0181 µM) | 4 µg/mL (≈ 4.52 µM) | 4 µg/mL (≈ 4.52 µM) | –
6 | COc1c(NC(=O)c2ccc(NC(=O)c3ccc(NC(=O)[C@H](Cc4c[nH]nn4)NC(=O)c4ccc(NC(=O)/C(C)=C/c5ccc(O)cc5)cc4)cc3)cn2)ccc(C(=O)O)c1O [Compound 9] | ≥ 8 µg/mL | 0.031 µg/mL (≈ 0.0369 µM) | 1 µg/mL (≈ 1.19 µM) | ↓ | 0.031 µg/mL (≈ 0.0369 µM) | 0.031 µg/mL (≈ 0.0369 µM) | 1 µg/mL (≈ 1.19 µM) | 1 µg/mL (≈ 1.19 µM) | –
7 | COc1c(NC(=O)c2ccc(NC(=O)c3ccc(NC(=O)[C@H](Cc4c[nH]nn4)NC(=O)c4ccc(NC(=O)/C(C)=C/c5ccc(O)cc5)cc4)cc3)nc2)ccc(C(=O)O)c1O [Compound 10] | 2 µg/mL | 0.063 µg/mL (≈ 0.075 µM) | 2 µg/mL (≈ 2.38 µM) | ↓ | 0.063 µg/mL (≈ 0.075 µM) | 0.016 µg/mL (≈ 0.0191 µM) | 32 µg/mL (≈ 38.1 µM) | 2 µg/mL (≈ 2.38 µM) | MIC (M. luteus DSM1790): 32.0 µg/mL (≈ 38.1 µM)
